This assay relates to L1210 leukemia ip in BDF1 mice, survival T/C. In words: NCI In Vivo Anticancer Drug Screen. Data for tumor model L1210 Leukemia (intraperitoneal) in B6D2F1 (BDF1) mice. The conditions noted are these: endpoint: mean survival time, higher = longer survival. The procedure, abridged: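 Value reflects the ratio of survival in compound-treated mice to survival in vehicle-treated controls, with both groups carrying the same transplanted tumor.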

Where [1] appears, read: dose: 300.0 mg/kg/injection, schedule: Q01DX001 (ip), vehicle: saline with Tween-80.
Where [2] appears, read: dose: 100.0 mg/kg/injection, schedule: Q01DX001 (ip), vehicle: carboxymethylcellulose (CMC).
[3] abbreviates: dose: 200.0 mg/kg/injection, schedule: Q01DX001 (ip), vehicle: carboxymethylcellulose (CMC).
The mark [4] stands for this setting: dose: 400.0 mg/kg/injection, schedule: Q01DX001 (ip), vehicle: carboxymethylcellulose (CMC).
Where [5] appears, read: dose: 100.0 mg/kg/injection, schedule: Q04DX003 (ip), vehicle: saline with Tween-80.
The mark [6] stands for this setting: dose: 200.0 mg/kg/injection, schedule: Q04DX003 (ip), vehicle: saline with Tween-80.
The mark [7] stands for this setting: dose: 400.0 mg/kg/injection, schedule: Q04DX003 (ip), vehicle: saline with Tween-80.
[8] abbreviates: dose: 25.0 mg/kg/injection, schedule: Q04DX003 (ip), vehicle: saline.
Where [9] appears, read: dose: 50.0 mg/kg/injection, schedule: Q04DX003 (ip), vehicle: saline.
The mark [10] stands for this setting: dose: 25.0 mg/kg/injection, schedule: Q01DX009 (ip), vehicle: saline.
Where [11] appears, read: dose: 50.0 mg/kg/injection, schedule: Q01DX009 (ip), vehicle: saline.

Molecules are shown by their SMILES. Values joined by “and” are separate entries in the source; they are usually repeats but may differ in a detail not shown here. Equal entries are not always repeated. Toxic doses and inconclusive results are not listed.

Take `O=C(C(=O)N1CC2OC2C1)N1CC2OC2C1` (stereo not given): the T/C (dose: 29.0 mg/kg/injection, schedule: Q04DX002 (ip), vehicle: saline with Tween-80) is 95 % of control; the T/C (dose: 39.0 mg/kg/injection, schedule: Q01DX001 (ip), vehicle: saline with Tween-80) was 98 % of control; the T/C (dose: 44.0 mg/kg/injection, schedule: Q04DX002 (ip), vehicle: saline with Tween-80) is 100 % of control; the T/C (dose: 59.0 mg/kg/injection, schedule: Q01DX001 (ip), vehicle: saline with Tween-80) is 102 % of control; the T/C (dose: 67.0 mg/kg/injection, schedule: Q04DX002 (ip), vehicle: saline with Tween-80) was 100 % of control; the T/C (dose: 88.0 mg/kg/injection, schedule: Q01DX001 (ip), vehicle: saline with Tween-80) was 97 % of control. The T/C runs as follows: (dose: 133.0 mg/kg/injection, schedule: Q01DX001 (ip), vehicle: saline with Tween-80) 97 % of control; (dose: 150.0 mg/kg/injection, schedule: Q04DX002 (ip), vehicle: saline with Tween-80) 102 % of control; (dose: 200.0 mg/kg/injection, schedule: Q01DX001 (ip), vehicle: saline with Tween-80) 97 % of control; (dose: 200.0 mg/kg/injection, schedule: Q04DX002 (ip), vehicle: saline with Tween-80) 239 % of control; (dose: 225.0 mg/kg/injection, schedule: Q04DX002 (ip), vehicle: saline with Tween-80) 105 % of control; under setting [1], 100 % of control.

As for `CCN(CC)P(=O)(N1CC1)N1CC1`, the T/C (dose: 0.75 mg/kg/injection, schedule: Q01DX Z (ip), vehicle: saline) was 109 % of control; the T/C (dose: 1.15 mg/kg/injection, schedule: Q01DX Z (ip), vehicle: saline) is 121 % of control; the T/C (dose: 2.0 mg/kg/injection, schedule: Q01DX Z (ip), vehicle: saline) is 106 % of control; the T/C (dose: 2.6 mg/kg/injection, schedule: Q01DX Z (ip), vehicle: saline) is 124 % of control and 215 % of control; the T/C (dose: 4.0 mg/kg/injection, schedule: Q01DX Z (ip), vehicle: saline) is 151 % of control; the T/C (dose: 9.0 mg/kg/injection, schedule: Q01DX Z (ip), vehicle: saline) is 213 % of control. The T/C (dose: 14.0 mg/kg/injection, schedule: Q01DX Z (ip), vehicle: saline) was 88 % of control and 91 % of control.

For `C[n+]1ccccc1/C=C/c1cccc(O)c1`, the T/C reads like this: (dose: 9.38 mg/kg/injection, schedule: Q01DX001 (ip), vehicle: other) 103 % of control; (dose: 18.75 mg/kg/injection, schedule: Q01DX001 (ip), vehicle: other) 100 % of control.

Take `CCOC(=O)C(CNC(N)=O)(c1ccccc1)c1ccccc1`: the T/C is, setting by setting: (dose: 50.0 mg/kg/injection, schedule: Q01DX001 (ip), vehicle: carboxymethylcellulose (CMC)) 93 % of control; under setting [2], 102 % of control; under setting [3], 87 % of control; under setting [4], 98 % of control.

As for `C#CCCCCCCl`, the T/C was 95 % of control (dose: 100.0 mg/kg/injection, schedule: Q01DX001 (ip), vehicle: other) and 102 % of control (dose: 200.0 mg/kg/injection, schedule: Q01DX001 (ip), vehicle: other).

Regarding `CN(C)c1ccc(C(=O)c2ccc(N(C)C)cc2)cc1`, the T/C runs as follows: under setting [5], 93 % of control; under setting [6], 88 % of control; under setting [7], 97 % of control.

For `N=C(N)c1ccc(C(=O)Oc2ccc([N+](=O)[O-])cc2)cc1`, the T/C is 103 % of control (dose: 25.0 mg/kg/injection, schedule: Q01DX009 (ip), vehicle: saline with Tween-80); 94 % of control (dose: 25.0 mg/kg/injection, schedule: Q04DX003 (ip), vehicle: saline with Tween-80); 97 % of control (dose: 50.0 mg/kg/injection, schedule: Q01DX009 (ip), vehicle: saline with Tween-80); 97 % of control (dose: 50.0 mg/kg/injection, schedule: Q04DX003 (ip), vehicle: saline with Tween-80); 98 % of control and 92 % of control under setting [5].

Consider `NNC(=O)c1ccc(Cl)cc1Nc1ccc(F)cc1`, for which the T/C under setting [8] is 94 % of control; the T/C under setting [9] was 100 % of control; the T/C (dose: 100.0 mg/kg/injection, schedule: Q01DX001 (ip), vehicle: saline sonified) is 111 % of control.

Take `Cc1ccc(S(=O)(=O)Nc2ccc(Br)cc2)cc1`: the T/C is 105 % of control under setting [2], 105 % of control under setting [3] and 107 % of control under setting [4].

`CCOC(=O)c1nc(N)[nH]c(=O)c1CCCCc1ccccc1`: the T/C runs as follows: (dose: 150.0 mg/kg/injection, schedule: Q01DX001 (ip), vehicle: saline with Tween-80) 87 % of control; under setting [1], 89 % of control.

As to `S=c1[nH]c2c(Cl)c(Cl)c(Cl)c(Cl)c2[nH]1`, the T/C reads like this: (dose: 100.0 mg/kg/injection, schedule: Q01DX009 (ip), vehicle: saline with Tween-80) 90 % of control; under setting [5], 100 % of control; (dose: 200.0 mg/kg/injection, schedule: Q01DX009 (ip), vehicle: saline with Tween-80) 95 % of control; under setting [6], 98 % of control; under setting [7], 102 % of control.

As to `CC(=O)COC(=O)c1ccc(N(C)CC(C)=O)cc1`, the T/C is 95 % of control (dose: 100.0 mg/kg/injection, schedule: Q04DX003 (ip), vehicle: Klucel (hydroxypropylcellulose) (HPC)); 86 % of control (dose: 200.0 mg/kg/injection, schedule: Q04DX003 (ip), vehicle: Klucel (hydroxypropylcellulose) (HPC)); 93 % of control (dose: 400.0 mg/kg/injection, schedule: Q04DX003 (ip), vehicle: Klucel (hydroxypropylcellulose) (HPC)).

Take `CC1C2CC3OC(=O)C1(C)C3C2` (stereo not given): the T/C is, setting by setting: (dose: 100.0 mg/kg/injection, schedule: Q01DX001 (ip), vehicle: saline) 92 % of control; (dose: 200.0 mg/kg/injection, schedule: Q01DX001 (ip), vehicle: saline) 98 % of control; (dose: 400.0 mg/kg/injection, schedule: Q01DX001 (ip), vehicle: saline) 96 % of control.

In the case of `Cc1ccc2[nH]c(=S)n(-c3cccc(C(F)(F)F)c3)c(=O)c2c1`, the T/C runs as follows: (dose: 100.0 mg/kg/injection, schedule: Q01DX009 (ip), vehicle: Klucel (hydroxypropylcellulose) (HPC)) 96 % of control; (dose: 200.0 mg/kg/injection, schedule: Q01DX009 (ip), vehicle: Klucel (hydroxypropylcellulose) (HPC)) 104 % of control; (dose: 400.0 mg/kg/injection, schedule: Q01DX009 (ip), vehicle: Klucel (hydroxypropylcellulose) (HPC)) 100 % of control.

As to `CN(C)C12CCCCC1S(=O)(=O)C2` (stereo not given), the T/C is, setting by setting: (dose: 10.0 mg/kg/injection, schedule: Q01DX009 (ip), vehicle: saline) 88 % of control; (dose: 20.0 mg/kg/injection, schedule: Q01DX009 (ip), vehicle: saline) 98 % of control.

Turning to `COc1ccc(C2(O)c3ccccc3-c3ccccc32)cc1`, the T/C under setting [10] was 98 % of control; the T/C under setting [11] was 93 % of control; the T/C (dose: 100.0 mg/kg/injection, schedule: Q01DX009 (ip), vehicle: saline) is 98 % of control; the T/C (dose: 200.0 mg/kg/injection, schedule: Q01DX009 (ip), vehicle: saline) is 101 % of control; the T/C (dose: 300.0 mg/kg/injection, schedule: Q01DX009 (ip), vehicle: saline) is 96 % of control; the T/C (dose: 400.0 mg/kg/injection, schedule: Q01DX009 (ip), vehicle: saline) was 95 % of control.

For the molecule `C=CCC(N)Cc1ccccc1` (stereo not given), the T/C (dose: 6.25 mg/kg/injection, schedule: Q01DX009 (ip), vehicle: saline) was 101 % of control; the T/C (dose: 12.5 mg/kg/injection, schedule: Q01DX009 (ip), vehicle: saline) was 113 % of control; the T/C under setting [10] was 101 % of control; the T/C under setting [8] is 96 % of control; the T/C under setting [11] is 109 % of control; the T/C under setting [9] was 105 % of control. For the same molecule, the T/C (dose: 100.0 mg/kg/injection, schedule: Q04DX003 (ip), vehicle: saline) was 102 % of control.

`C[N+]1(C)C2CCCCC1CC(=O)C2`: the T/C is 96 % of control (dose: 10.0 mg/kg/injection, schedule: Q01DX001 (ip), vehicle: saline); 98 % of control (dose: 20.0 mg/kg/injection, schedule: Q01DX001 (ip), vehicle: saline); 95 % of control (dose: 40.0 mg/kg/injection, schedule: Q01DX001 (ip), vehicle: saline).

(Values after PubChem BioAssay AID248 (DTP/NCI, 2004).)
